Assay results from patent EP0423727B1, “Silver halide color photographic material containing colored coupler” (FUJI PHOTO FILM CO., LTD., priority 1989, dated 1991).

Assay: spectral absorption of the colored coupler in methanol
Format: physicochemical
Protocol: 10.1 g of compound c synthesized by the method described in U.S. Patent 4,138,258 was dissolved in 60 ml of N,N-dimethylformamide and 60 ml of methyl cellosolve. While cooling the resulting solution with ice, 4.3 ml of concentrated hydrochloric acid was added thereto and a solution of 1.84 g of sodium nitrite in 5 ml of water was added dropwise thereto to prepare a diazonium solution. 60 ml of methyl cellosolve and 20 ml of water were added to 7.8 g of the compound b and 8.2 g of sodium acetate. While stirring the resulting solution under ice cooling, the above diazonium solution was added dropwise thereto. After dropwise addition, the mixture was stirred for one hour and then at room temperature for 2 hours. The precipitated crystal was recovered by filtration, washed with water, dried and dispersed in 500 ml of methanol. The dispersion was heated to reflux for one hour and then allowed to stand to cool it. The crystal was recovered by filtration, washed with methanol and dried to give 13.6 g of the desired coupler (1) as a red crystal with a melting point of 269 to 272°C (decomposition). The structure of the compound was confirmed by ¹HNMR spectrum, mass spectrum and elemental analysis.
75 ml of methyl cellosolve and 26 ml of water were added to 10.1 g of the compound b and 10.7 g of sodium acetate. While stirring the resulting solution under ice cooling, the above diazonium solution was added dropwise thereto. After dropwise addition, the mixture was stirred for one hour and then at room temperature for 2 hours. The precipitated crystal was recovered by filtration and dispersed in 200 ml of methanol. A solution of 2.2 g of sodium hydroxide in 10 ml of water was added dropwise thereto. The mixture was stirred for 3 hours and neutralized with concentrated hydrochloric acid. The precipitated crystal was washed with water and then methanol and dried. The resulting crude crystal was purified from hot methanol in the same manner as in Synthesis Example 1 to give 14.8 g of the desired coupler (3) with a melting point of 246 to 251°C (decomposition). […]

spectral absorption characteristics as a yellow colored coupler: good | maximum absorption wavelength (in methanol): 458.2 nm | molecular extinction coefficient (in methanol): 42800
SMILES: CCCCCCCCC(CCCCCC)COCCCNC(=O)c1cc(OCCOc2ccc(N=Nc3c(C)c(C#N)c(=O)n(-c4ccccc4C(=O)O)c3O)cc2)c2ccccc2c1O (stereo not drawn) [(22)]
